Source: US10898576B2, “Glucocorticoid combined with polyethylene glycol-modified interleukin 2 for treating respiratory disease” (priority 2016, dated 2021)

Experiments:
CTLL-2 cell = CTLL-2 cell assay of IL-2 activity; assay type: cell-based; details: compared with IL-2 working standard
asthma mice [1] = test: Lung histopathology (H&E, PAS) of OVA asthma mice; assay type: in vivo, BALB/c mice; details: same dose of the drug alone as in the combination, atomization days 12-14
Experimental: (§1) Female BALB/c mice aged 6-8 weeks (purchased from SLAC Laboratory Animal Co., Ltd.) were used for modeling of asthma, which were sensitized by intraperitoneal injection with 100 μg of ovalbumin (OVA) (Sigma) and 2 mg of Al(OH)3 for injection (Sigma) on days 1 and 8, and challenged by daily nasal instillation with 20 μl of 2% OVA on days 9-14 (FIG. 1A).
(§2) The asthma mice model of Example 1 were subjected to drug intervention while challenge by nasal instillation on days 12-14. The specific administration method was that the mice were anesthetized with 7% chloral hydrate (Sangon Biotech (Shanghai) Co., Ltd.) and then administrated quantitatively through atomization in the lung using an atomization metered dosing device (MicroSprayer®—Model IA-1B), and the administration volume was fixed at 25 ul/mouse, and the administration dose was adjusted by the level of concentration. On the 15th day, relevant indicators were detected.
(§3) Lung histopathology. The lungs of mice were fixed in 10% formalin, embedded in paraffin, sectioned, stained with H&E (Merck & Co, Inc) and PAS (Sigma), respectively, and examined under a 20-fold microscope.

[2] = system: Treg in bronchoalveolar lavage fluid; test: Flow cytometry of Treg in bronchoalveolar lavage fluid of OVA asthma mice after atomization in the lung; assay type: in vivo, BALB/c mice; details: same dose of the drug alone as in the combination, atomization days 12-14
Experimental: as §1, §2
Collection of bronchoalveolar lavage fluid. The mice were sacrificed by cervical dislocation. […] The IFN-γ, IL-4, IL-10, and IL-13 in the supernatant were measured by using commercial ELISA kit (R&D Corp).
Flow cytometry. […] All results were analyzed by FlowJo software (Treestar).

asthma mice [3] = test: Example 6: asthma mice challenged days 9-18, local atomization vs intraperitoneal Dex, lung function and pathology; assay type: in vivo, BALB/c mice; details: 40 μg Dex per mouse
Experimental: as §3
Lung function measurement. After being anesthetized with 2% pentobarbital sodium, the mice were subjected to respiratory provocation test with methacholine (Sigma) at 3.125 mg/ml, 6.25 mg/ml, and 12.5 mg/ml prepared in PBS, respectively. The airway resistance curve was plotted and analyzed (FinePoint NAM). The assay was performed using the BUXCO Airway Resistance and Lung Compliance System (BUXCO Electronics).
Modeling of asthma model mice and administration. The same mice as in Example 1 were used for asthma modeling, which were sensitized by intraperitoneal injection with 100 μg of ovalbumin (OVA) (Sigma) and 2 mg of Al(OH)3 for injection (Sigma) on days 1 and 8, and challenged by daily nasal instillation with 20 μl of 2% OVA on days 9-18. According to the purpose of the experiment, 40 μg Dex was intraperitoneally injected on days 12-18, 14-18 and 16-18, or 25,000 IU IL-2(PEG)+5 μg Bud was administered by atomization on days 16-18, respectively.
Administration and histopathological analysis were performed in the same manner as in Example 2, and lung function test was performed in the same manner as in Example 3. […]

For “PEG-modified IL-2: IL-2 modified with a non-branched PEG of a molecular weight of 20 kD, main site N-terminus”, the activity (CTLL-2 cell) was “comparable to that of the IL-2 working standard”.
“IL-2: human-derived IL-2, sequence SEQ ID NO. 1 (Xiamen Amoytop Biotech Co., Ltd.)” was tested, and the “pathological manifestations of lung inflammation, single drug alone” value (asthma mice [1]) was “could not be achieved” and the “Treg in bronchoalveolar lavage fluid, single drug alone” value [2] was “could not be achieved”.
With `C[C@@H]1C[C@H]2[C@@H]3CCC4=CC(=O)C=C[C@]4(C)[C@@]3(F)[C@@H](O)C[C@]2(C)[C@@]1(O)C(=O)CO` [Dex, dexamethasone] the “duration of intraperitoneal injection required to exert a therapeutic effect on asthma” value (asthma mice [3]) was “at least 7 consecutive days”.
